Measurements reported in patent US20240325548A1, “DYNAMIC BIOACTIVE SCAFFOLDS AND THERAPEUTIC USES THEREOF AFTER CNS INJURY” (Northwestern University, priority 2021, published 2024).

Legend:
[1] = T2-NMR spin-spin relaxation rate of PA assemblies; type: physicochemical; settings: for relaxation rate 1H-R2 of methylene protons on ε carbon of K residue in IKVAV: T2-NMR, IKVAV PA library
Experimental: NMR spectra were acquired at 600 MHz on a Tecmag NMR spectrometer using a Doty diffusion probe with a sweep width of 6 kHz and 16k data points or at 600 MHz on a Brucker Neo system with QCI-F cryoprobe.
NMR spectra for IKVAV PAs were recorded at 25° C. using TFA-d, H2O/D2O in 9/1 ratio (D2O contains 0.05 wt. % 3-(trimethylsilyl) propionic-2,2,3,3-d4 acid, sodium salt) as solvents. Chemical shifts are reported in part per million (ppm). Structural assignment was performed using ^1H,^1H-gCOSY, ^1H,^13C-gHSCQAD, TOCSY and NOESY. Multiplicities are quoted as singlet (s), doublet (d), multiplets (m), doublet of doublets (dd), doublet of doublet of doublets (ddd), triplet (t), quartet (q). The […] and typical spectra required 32 scans. Additional scans (512) were required for accurate estimation of the aromatic signal intensity since the epitope containing aromatic protons was present at only 10 mol %.
The spin-spin relaxation rates were measured using the Carr-Purcell-Gill-Meiboom pulse sequence with a delay time of 0.2 ms in a variable loop. The peak intensity data was fit to and exponential in the form:
where τ is the length of the delay time, R2 is the spin-spin relaxation rate and b are the baseline.

hNPCs = test: Neuronal differentiation of hNPCs treated with IKVAV PAs (TUJ-1+ cells); type: cell-based, human
Source text: Neural progenitor cells (NPCs) were differentiated from human embryonic stem cells HUES 64 (Harvard University) (see FIG. 2C). In short, 70% confluent stem cell cultures grown in Matrigel (Thermo Fisher) coated plates with mTESR medium (STEMCELL Technologies), were switched to N2B27 medium (50% DMEM: F12, 50% Neurobasal, supplemented with NEAA, Glutamax, N2 and B27; Gibco) containing dual SMAD inhibitors (SB431542, DNSK International and LDN-193189, Tocris) for 12 days to induce the generation of neural progenitors. Neuralization was enhanced by supplementing medium with laminin from day 5 to 12. Next, neural rosettes were dissociated with neural rosette selection reagent (STEMCELL Technologies) to obtain NPCs, which are expanded in N2B27 (Gibco) medium supplemented with bFGF (Millipore). For experimentation in the different PA platforms, NPCs were dissociated with Accutase (Innovative Cell technology), and cultured in the distinct platforms with DMEM: F12+N2+B27 medium with hyclone penicillin-streptomycin (GE Healthcare) and ascorbic acid (0.2 μg/mL; Sigma-Aldrich).
For IKVAV PA treatments, hNPCs were cultured on ornithine coatings (German Glass, Chemglass Life Science) in 6 well and 24 well plates at a density of 500,000 cells/well and 80,000 cells/well respectively. hNPCs were treated with […] of IKVAV PAs ([PA]=6 mM, [KCl]=3 mM, [NaCl]=150 mM) or recombinant laminin protein (10 mg/mL) in solution. IKVAV PA2 and IKVAV PA5 were also mixed with 5 mM CaCl2) at a ratio PA:CaCl2) 6:1 to treat hNPCs. For 2D experiments, hNPCs were cultured on the different IKVAV PAs or laminin coatings in 6 well and 24 well plates at densities mentioned above. For co-assembled experiments, hNPCs were cultured on the different co-assembled PA coatings in 6 well and 24 well plates at a density of 400,000 cells/well and 50,000 cells/well respectively.
hNPCs were fed 4 times a week with DMEM: F12+N2^+B27 medium with hyclone penicillin-streptomycin and ascorbic acid. After 24 h, 72 h 1- or 2-weeks in vitro, cell lysates were harvested or fixed for WB or ICC, respectively. Three replicates per condition and at least three independent experiments were carried out for all conditions investigated.
For immunofluorescence, fixed primary cultures or free-floating tissue sections (40 m Thick) were incubated in blocking buffer containing 0.02% Triton-X (Sigma-Aldrich), 1% NHS (Gibco) and PBS 1× (Gibco). Samples were incubated with primary antibodies over night at 4° C. Alexa-488, Alexa-555 and/or Alexa-647 (1:500, Thermofisher) were used as secondary antibodies. DAPI (1:500, Thermofisher) was used to stain nuclei. Finally, the samples were mounted on coverslips with Immu-Mount (Fisher Scientific) solution for imaging.
For in vitro cell quantification, image files were imported into NIH Image J (1.51) software and the “analyze particles” and “cell counter” functions were used to measure the total number of cells in a determined area. Serial tissue sections were stained with NeuN and ChAT using free-floating immunostaining were quantified using Nikon Elements software. The rostral and caudal borders of the lesions were chosen as the first cross-sections that had NeuN staining in all four gray matter horns. 8 sections within the lesion were chosen per animal and expressed as number of neurons per section. Automated multichannel image acquisition, image stitching, and z-stack reconstruction ([…]) were carried out on a Nikon GasP R1 confocal microscope to image the entire selected cross-section for NeuN and Chat markers for all conditions.

[2] = T2 relaxation of K residue of IKVAV PAs, no Ca2+

| relaxation rate 1H-R2 of methylene protons on ε carbon of K residue in IKVAV [1] [s⁻¹] | R2 [1, 2] [s⁻¹] | R2 ([1]; T2 relaxation of K residue, +Ca2+) [s⁻¹] | Substance | percentage of induction of TUJ-1+ neuronal cells (hNPCs) [%] |
| --- | --- | --- | --- | --- |
| 2.6 ± 0.003 | 2.6 ± 0.03 | – | C16-G4E4GIKVAV [IKVAV PA5] | 20.7±1.2 |
| – | 11.2 ± 2.9 | – | C16-V2A2E4GIKVAV [IKVAV PA1] | 8.2±0.7 |
| – | 5.6 ± 0.4 | – | C16-VAG2E4GIKVAV [IKVAV PA4] | 14±1.2 |
| 2.7 ± 0.1 | 2.7 ± 0.1 | 8.6 ± 0.5 | C16-A2G2E4GIKVAV [IKVAV PA2] | 20.5±1 |
